Test results as given in ChEMBL document CHEMBL3992500, “Design, facile synthesis and biological evaluations of novel pyrano[3,2-a]phenazine hybrid molecules as antitumor agents” (Eur J Med Chem, 2017).
Each block holds one molecule with its values, some of them ahead of it. Active and inactive are the calls of the source. No cut-off for these calls is given here.

Experiments:
[1] = biological target: DNA topoisomerase 2-alpha (Homo sapiens) (UniProt P11388); assay: Inhibition of DNA topoisomerase-2alpha (unknown origin) assessed as reduction in enzyme-catalyzed relaxation of pBR322 DNA substrate at 20 uM after 30 mins by ethidium bromide staining based electrophoresis
[2] = biological target: T1, DNA topoisomerase 1 (Homo sapiens) (UniProt P11387); assay: Inhibition of DNA topoisomerase-1 (unknown origin) assessed as reduction in enzyme-catalyzed relaxation of pBR322 DNA substrate at 20 uM after 30 mins by ethidium bromide staining based electrophoresis
T1 sequence (whole entry): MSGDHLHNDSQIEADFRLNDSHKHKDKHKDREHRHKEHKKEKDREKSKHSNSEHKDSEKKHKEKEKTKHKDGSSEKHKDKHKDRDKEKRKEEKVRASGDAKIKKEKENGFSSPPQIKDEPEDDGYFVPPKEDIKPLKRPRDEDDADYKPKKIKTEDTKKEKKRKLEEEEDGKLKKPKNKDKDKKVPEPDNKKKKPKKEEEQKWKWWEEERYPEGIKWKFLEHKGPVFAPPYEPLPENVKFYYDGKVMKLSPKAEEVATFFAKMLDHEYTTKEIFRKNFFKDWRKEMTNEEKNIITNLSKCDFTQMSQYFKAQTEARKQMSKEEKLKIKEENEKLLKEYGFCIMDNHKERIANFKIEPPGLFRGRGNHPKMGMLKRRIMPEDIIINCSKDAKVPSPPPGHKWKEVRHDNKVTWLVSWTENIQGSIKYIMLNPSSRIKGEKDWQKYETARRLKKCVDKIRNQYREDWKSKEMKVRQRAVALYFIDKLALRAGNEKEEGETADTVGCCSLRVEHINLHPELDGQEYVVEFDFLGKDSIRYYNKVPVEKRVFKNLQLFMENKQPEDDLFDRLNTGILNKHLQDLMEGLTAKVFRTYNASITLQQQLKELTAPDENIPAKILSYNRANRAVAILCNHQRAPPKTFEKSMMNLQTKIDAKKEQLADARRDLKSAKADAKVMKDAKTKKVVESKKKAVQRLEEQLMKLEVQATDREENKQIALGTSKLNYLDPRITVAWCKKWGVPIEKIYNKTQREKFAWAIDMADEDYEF

[3] = system: HCT-116; assay: Antiproliferative activity against human HCT116 cells after 48 hrs by MTT assay; format: functional, cell-based; settings: HCT-116, 48 h
[4] = system: MCF7; assay: Antiproliferative activity against human MCF7 cells after 48 hrs by MTT assay; format: functional, cell-based; settings: MCF7, 48 h
[5] = system: A549; assay: Antiproliferative activity against human A549 cells after 48 hrs by MTT assay; format: functional, cell-based; settings: A549, 48 h
[6] = system: HepG2; assay: Antiproliferative activity against human HepG2 cells after 48 hrs by MTT assay; format: functional, cell-based; settings: HepG2, 48 h
[7] = system: Mus musculus; assay: Toxicity in ICR mouse implanted with mouse H22-H8D8 cells assessed as body weight at 5 mg/kg, iv (reference value: 29.89 to 33.78 g); format: organism-based; settings: in vivo
[8] = system: Mus musculus; assay: Toxicity in ICR mouse implanted with mouse H22-H8D8 cells assessed as body weight at 20 mg/kg, iv (reference value: 29.89 to 33.78 g); format: organism-based; settings: in vivo
[9] = Antitumor activity against mouse H22-H8D8 cells implanted in ICR mouse assessed as tumor growth inhibition at 20 mg/kg, iv relative to control; format: functional; settings: read-out: TGI
[10] = system: Mus musculus; assay: Toxicity in ICR mouse implanted with mouse H22-H8D8 cells assessed as body weight at 10 mg/kg, iv (reference value: 29.89 to 33.78 g); format: organism-based; settings: in vivo
[11] = Antitumor activity against mouse H22-H8D8 cells implanted in ICR mouse assessed as tumor growth inhibition at 10 mg/kg, iv relative to control; format: functional; settings: read-out: TGI
[12] = Antitumor activity against mouse H22-H8D8 cells implanted in ICR mouse assessed as tumor growth inhibition at 5 mg/kg, iv relative to control; format: functional; settings: read-out: TGI
[13] = system: HepG2; assay: Induction of apoptosis in human HepG2 cells assessed as early apoptotic cells at 2 uM after 24 hrs by Annexin V-APC/7-AAD staining based flow cytometry (reference value: 0.774%); format: functional
[14] = system: HepG2; assay: Induction of apoptosis in human HepG2 cells assessed as increase in Bax/Bcl2 ratio up to 8 uM after 24 hrs by Western blot method; format: functional, cell-based
[15] = system: HepG2; assay: Induction of apoptosis in human HepG2 cells assessed as live cells at 8 uM after 24 hrs by Annexin V-APC/7-AAD staining based flow cytometry (reference value: 87%); format: functional
[16] = system: HepG2; assay: Downregulation of cyclin B protein expression in human HepG2 cells after 24 hrs by Western blot method; format: functional, cell-based
[17] = system: HepG2; assay: Induction of apoptosis in human HepG2 cells assessed as live cells at 4 uM after 24 hrs by Annexin V-APC/7-AAD staining based flow cytometry (reference value: 87%); format: functional
[18] = system: HepG2; assay: Induction of apoptosis in human HepG2 cells assessed as early apoptotic cells at 4 uM after 24 hrs by Annexin V-APC/7-AAD staining based flow cytometry (reference value: 0.774%); format: functional
[19] = system: HepG2; assay: Induction of apoptosis in human HepG2 cells assessed as necrotic cells at 4 uM after 24 hrs by Annexin V-APC/7-AAD staining based flow cytometry (reference value: 5.35%); format: functional
[20] = system: HepG2; assay: Induction of apoptosis in human HepG2 cells after 24 hrs by Annexin V-APC/7-AAD staining based flow cytometry; format: functional, cell-based
[21] = system: HepG2; assay: Induction of apoptosis in human HepG2 cells assessed as increase in cleaved caspase-3 expression after 24 hrs by Western blot method; format: functional, cell-based
[22] = system: HepG2; assay: Induction of apoptosis in human HepG2 cells assessed as early apoptotic cells at 8 uM after 24 hrs by Annexin V-APC/7-AAD staining based flow cytometry (reference value: 0.774%); format: functional
[23] = system: HepG2; assay: Upregulation of p21 protein expression in human HepG2 cells after 24 hrs by Western blot method; format: functional, cell-based
[24] = system: HepG2; assay: Induction of apoptosis in human HepG2 cells assessed as live cells at 2 uM after 24 hrs by Annexin V-APC/7-AAD staining based flow cytometry (reference value: 87%); format: functional
[25] = system: HepG2; assay: Induction of apoptosis in human HepG2 cells assessed as late apoptotic cells at 8 uM after 24 hrs by Annexin V-APC/7-AAD staining based flow cytometry (reference value: 6.86%); format: functional
[26] = system: HepG2; assay: Induction of apoptosis in human HepG2 cells assessed as necrotic cells at 8 uM after 24 hrs by Annexin V-APC/7-AAD staining based flow cytometry (reference value: 5.35%); format: functional
[27] = system: HepG2; assay: Cell cycle arrest in human HepG2 cells assessed as accumulation at subG1 phase at 2 to 8 uM after 24 hrs by propidium iodide staining based flow cytometry; format: functional
[28] = system: HepG2; assay: Induction of apoptosis in human HepG2 cells assessed as increase in cleaved caspase-9 expression after 24 hrs by Western blot method; format: functional, cell-based
[29] = system: HepG2; assay: Cell cycle arrest in human HepG2 cells assessed as accumulation at G2/M phase after 24 hrs by propidium iodide staining based flow cytometry; format: functional
[30] = system: HepG2; assay: Induction of apoptosis in human HepG2 cells assessed as late apoptotic cells at 4 uM after 24 hrs by Annexin V-APC/7-AAD staining based flow cytometry (reference value: 6.86%); format: functional
[31] = biological target: DNA topoisomerase 2-alpha (Homo sapiens) (UniProt P11388); assay: Inhibition of DNA topoisomerase-2alpha (unknown origin) assessed as reduction in enzyme-catalyzed relaxation of pBR322 DNA substrate at 20 to 500 nM after 30 mins by ethidium bromide staining based electrophoresis
[32] = system: HepG2; assay: Downregulation of CDK1 protein expression in human HepG2 cells after 24 hrs by Western blot method; format: functional, cell-based
[33] = system: HepG2; assay: Induction of apoptosis in human HepG2 cells assessed as late apoptotic cells at 2 uM after 24 hrs by Annexin V-APC/7-AAD staining based flow cytometry (reference value: 6.86%); format: functional
[34] = system: HepG2; assay: Upregulation of p53 protein expression in human HepG2 cells after 24 hrs by Western blot method; format: functional, cell-based
[35] = system: HepG2; assay: Induction of apoptosis in human HepG2 cells assessed as necrotic cells at 2 uM after 24 hrs by Annexin V-APC/7-AAD staining based flow cytometry (reference value: 5.35%); format: functional
[36] = system: HepG2; assay: Induction of apoptosis in human HepG2 cells assessed as increase in cytochrome c release from mitochondria to cytosol up to 8 uM after 24 hrs by Western blot method; format: functional, cell-based
[37] = biological target: T1, DNA topoisomerase 1 (Homo sapiens); assay: Inhibition of DNA topoisomerase-1 (unknown origin) assessed as reduction in enzyme-catalyzed relaxation of pBR322 DNA substrate at 2.5 to 5 uM after 30 mins by ethidium bromide staining based electrophoresis

Chain of DNA topoisomerase 2-alpha (Homo sapiens) (P11388 whole entry): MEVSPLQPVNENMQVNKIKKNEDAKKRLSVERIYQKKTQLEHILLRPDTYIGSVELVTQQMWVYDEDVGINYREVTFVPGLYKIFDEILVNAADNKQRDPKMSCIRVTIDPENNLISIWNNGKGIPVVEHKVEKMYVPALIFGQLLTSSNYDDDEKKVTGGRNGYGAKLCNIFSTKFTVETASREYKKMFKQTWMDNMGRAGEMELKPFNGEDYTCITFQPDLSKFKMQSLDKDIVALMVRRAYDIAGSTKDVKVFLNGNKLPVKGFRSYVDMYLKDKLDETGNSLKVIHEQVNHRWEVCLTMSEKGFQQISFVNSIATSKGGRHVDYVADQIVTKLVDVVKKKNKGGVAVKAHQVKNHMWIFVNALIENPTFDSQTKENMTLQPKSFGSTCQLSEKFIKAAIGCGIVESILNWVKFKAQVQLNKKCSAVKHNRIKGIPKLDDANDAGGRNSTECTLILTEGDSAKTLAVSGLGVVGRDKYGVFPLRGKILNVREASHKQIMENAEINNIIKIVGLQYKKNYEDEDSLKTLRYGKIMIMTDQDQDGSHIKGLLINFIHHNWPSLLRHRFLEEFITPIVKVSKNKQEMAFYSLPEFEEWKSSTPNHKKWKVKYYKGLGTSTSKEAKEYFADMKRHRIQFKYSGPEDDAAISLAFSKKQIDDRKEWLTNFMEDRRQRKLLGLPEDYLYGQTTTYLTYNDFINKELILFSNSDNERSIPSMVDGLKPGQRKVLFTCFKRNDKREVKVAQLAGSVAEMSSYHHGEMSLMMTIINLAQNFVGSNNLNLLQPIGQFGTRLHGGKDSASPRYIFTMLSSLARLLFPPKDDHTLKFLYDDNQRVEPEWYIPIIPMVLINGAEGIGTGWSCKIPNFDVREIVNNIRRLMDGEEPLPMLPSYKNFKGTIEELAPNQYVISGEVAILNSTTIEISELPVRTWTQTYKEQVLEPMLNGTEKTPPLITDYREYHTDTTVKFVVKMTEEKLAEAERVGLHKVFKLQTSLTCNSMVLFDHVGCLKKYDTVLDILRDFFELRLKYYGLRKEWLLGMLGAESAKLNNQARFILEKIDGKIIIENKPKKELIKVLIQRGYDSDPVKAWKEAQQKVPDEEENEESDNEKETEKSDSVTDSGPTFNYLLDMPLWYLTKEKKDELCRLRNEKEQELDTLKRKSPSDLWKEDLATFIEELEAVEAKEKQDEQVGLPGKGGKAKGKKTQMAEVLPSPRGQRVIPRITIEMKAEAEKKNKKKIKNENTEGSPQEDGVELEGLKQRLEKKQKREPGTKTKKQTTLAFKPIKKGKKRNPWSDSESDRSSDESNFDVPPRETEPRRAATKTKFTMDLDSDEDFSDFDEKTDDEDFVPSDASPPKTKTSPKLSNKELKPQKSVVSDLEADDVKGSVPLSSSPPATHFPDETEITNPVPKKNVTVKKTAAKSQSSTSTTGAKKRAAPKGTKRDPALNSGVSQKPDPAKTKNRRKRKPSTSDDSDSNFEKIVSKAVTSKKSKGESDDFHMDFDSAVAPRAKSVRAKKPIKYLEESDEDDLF

inhibition [1]: Active
Structure (SMILES): COc1cc([C@@H]2c3cc4c(cc3[C@@H](O[C@@H]3O[C@@H]5CO[C@@H](C)O[C@H]5[C@H](O)[C@H]3O)[C@H]3COC(=O)[C@H]23)OCO4)cc(OC)c1O

inhibition [2]: Active | IC50 [3]: 30.2 µM | IC50 [4]: 28.4 µM | IC50 [5]: 6.32 µM | IC50 [6]: 5 µM | inhibition [1]: Active
Structure (SMILES): CCOC(=O)C1=C(N)Oc2c(N)cc3nc4ccccc4nc3c2C1c1ccccc1Br (centres undefined)
Activity [7]: 35.78 g | Activity [8]: 35.56 g | inhibition in vivo at 20 mg/kg [9]: 45.6% | Activity [10]: 37.44 g | inhibition in vivo at 10 mg/kg [11]: 28.9% | inhibition in vivo at 5 mg/kg [12]: 38.9%

inhibition [2]: Active | IC50 [3]: 7.8 µM | IC50 [4]: > 50 µM | IC50 [5]: 7.24 µM | IC50 [6]: 4.48 µM | inhibition [1]: Active
Structure (SMILES): CCOC(=O)C1=C(N)Oc2c(N)cc3nc4ccccc4nc3c2C1c1cccc(Cl)c1Cl (centres undefined)
Activity [7]: 37.78 g | Activity [8]: 40.33 g | inhibition in vivo at 20 mg/kg [9]: 26.1% | Activity [10]: 39.22 g | inhibition in vivo at 10 mg/kg [11]: 4.5% | inhibition in vivo at 5 mg/kg [12]: 27%

inhibition [2]: Active | IC50 [3]: 8 µM | IC50 [4]: 7.3 µM | IC50 [5]: 6.8 µM | IC50 [6]: 2.1 µM | inhibition [31]: Active | inhibition [1]: Active | inhibition [37]: Active
Structure (SMILES): N#CC1=C(N)Oc2c(N)cc3nc4ccccc4nc3c2C1c1ccc(Cl)c(Cl)c1 (centres undefined)
Activity [13]: 3.1% | Activity [14]: Active | Activity [15]: 22.5% | Activity [16]: Dose-dependent effect | Activity [17]: 44.7% | Activity [18]: 8.97% | Activity [19]: 14.9% | Activity [20]: Dose-dependent effect | Activity [21]: Dose-dependent effect | Activity [22]: 3.31% | Activity [23]: Dose-dependent effect | Activity [24]: 80% | Activity [25]: 53.5% | Activity [7]: 38 g | Activity [26]: 20.7% | Activity [27]: Active | Activity [8]: 35.22 g | Activity [28]: Dose-dependent effect | Activity [29]: Dose-dependent effect | inhibition in vivo at 20 mg/kg [9]: 77.8% | Activity [30]: 31.5% | Activity [10]: 35.33 g | inhibition in vivo at 10 mg/kg [11]: 68.9% | Activity [32]: Dose-dependent effect | Activity [33]: 11.2% | Activity [34]: Dose-dependent effect | Activity [35]: 5.65% | Activity [36]: Active | inhibition in vivo at 5 mg/kg [12]: 7.78%

inhibition [2]: Active | IC50 [3]: 10.2 µM | IC50 [4]: 18.6 µM | IC50 [5]: 9.5 µM | IC50 [6]: 2.2 µM | inhibition [1]: Active
Structure (SMILES): N#CC1=C(N)Oc2c(N)cc3nc4ccccc4nc3c2C1c1ccc(Cl)cc1 (centres undefined)
Activity [7]: 40 g | Activity [8]: 37.22 g | inhibition in vivo at 20 mg/kg [9]: 57.7% | Activity [10]: 41.33 g | inhibition in vivo at 10 mg/kg [11]: 11.7% | inhibition in vivo at 5 mg/kg [12]: 0.09%

IC50 [3]: 6.3 µM | IC50 [4]: > 50 µM | IC50 [5]: 11.2 µM | IC50 [6]: 10.3 µM
Structure (SMILES): N#CC1=C(N)Oc2c(N)cc3nc4ccccc4nc3c2C1c1ccc(Br)cc1 (centres undefined)

IC50 [3]: 20.2 µM | IC50 [4]: > 50 µM | IC50 [5]: 17.3 µM | IC50 [6]: 10.6 µM
Structure (SMILES): CCOC(=O)C1=C(N)Oc2c(N)cc3nc4ccccc4nc3c2C1c1ccc(Br)cc1 (centres undefined)

Structure (SMILES): O=P1(N(CCCl)CCCl)NCCCO1 (centres undefined) [CYCLOPHOSPHAMIDE ANHYDROUS]
Activity [8]: 34.3 to 35.6 g | inhibition in vivo at 20 mg/kg [9]: 66.7 to 67.8%
